Data from patent publication US20230034248A1, “PLANT STOMATA OPENING PROMOTING AGENT” (OAT Agrio Co., Ltd., priority 2019, published 2023).

Test system: lower epidermis of Commelina benghalensis L.
Assay: Stomatal opening promoting activity in a dark place (stomatal aperture of peeled lower epidermis)
Type: cell-based
Conditions: for Stomatal Aperture: dark place 3 hours
Procedure: The lower epidermis of Commelina benghalensis L. was peeled off, immersed in the stomatal aperture measurement solution, and allowed to stand still in a dark place for 2 hours. Then, the lower epidermis of Commelina benghalensis L. was immersed in test solutions prepared by adding steviol to the stomatal aperture measurement solution to give 100 or 300 μM (final concentration) or in the stomatal aperture measurement solution without the addition of steviol (Comparative Example 1), and allowed to stand still in a bright place for 3 hours. The lower epidermis of Commelina benghalensis L. after immersion in the test solutions was photographed with a digital camera (LCD (Liquid Crystal Display), manufactured by KENIS LIMITED) attached to a microscope (Olympus BH2; objective lens SPlan 10 [manufactured by Olympus Corporation] magnification 200×). The stomatal aperture was measured with measurement software (digital microanalyzer, manufactured by Nippon Polaroid Corporation; Polaroid is the registered trademark). The stomatal aperture was measured for 80 or more stomata, for each addition concentration. The stomatal aperture obtained at each addition concentration was compared with the stomatal aperture obtained without the addition of steviol (0 μM, Comparative Example 1), and statistical analysis was performed by student's t-test.
(§1) The lower epidermis of Commelina benghalensis L. that had been peeled off was immersed in the stomatal aperture measurement solution, and allowed to stand still in a dark place for 2 hours. Then, the lower epidermis of Commelina benghalensis L. was immersed in test solutions prepared by adding steviol to the stomatal aperture measurement solution to give 200 or 300 μM (final concentration) or in the stomatal aperture measurement solution without the addition of steviol (Comparative Example 4), and allowed to stand still in a dark place for 3 hours. Then, the stomatal aperture was measured as in Example 1.
as §1, with “stevioside” for “steviol”, “give 100,” for “give”, “5),” for “4),”
as §1, with “rebaudioside A” for “steviol”, “10, 100, 300,” for “200”, “500” for “300”, “6),” for “4),”
as §1, with “FARM A” for “steviol”, “a 2,000-, 1,000-,” for “200”, “500-fold dilution” for “300 μM”, “7),” for “4),”

SMILES	Stomatal Aperture (addition concentration 10 μM)	Stomatal Aperture (addition concentration 100 μM)	Stomatal Aperture (addition concentration 300 μM)	Stomatal Aperture (addition concentration 500 μM)	stomatal aperture as compared to without the addition (student's t-test) (every concentration (10, 100, 300, 500 μM), dark place)	stomatal aperture as compared to without the addition (student's t-test) (200 or 300 μM, dark place)	Stomatal Aperture (addition concentration 200 μM)	stomatal aperture as compared to without the addition (100, 200 or 300 μM, dark place)	stomatal aperture as compared to without the addition (student's t-test) (100 or 200 μM, dark place)
C=C1C[C@@]23CC[C@H]4[C@@](C)(CCC[C@@]4(C)C(=O)O[C@@H]4O[C@H](CO)[C@@H](O)[C@H](O)[C@H]4O)[C@@H]2CC[C@]1(O[C@@H]1O[C@H](CO)[C@@H](O)[C@H](O[C@@H]2O[C@H](CO)[C@@H](O)[C@H](O)[C@H]2O)[C@H]1O[C@@H]1O[C@H](CO)[C@@H](O)[C@H](O)[C@H]1O)C3 [rebaudioside A]	8.70 ± 0.39 μm	9.53 ± 0.45 μm	11.46 ± 0.55 μm	9.05 ± 0.40 μm	statistically significant increase in the stomatal aperture				
C=C1C[C@@]23CC[C@H]4[C@@](C)(CCC[C@@]4(C)C(=O)O)[C@@H]2CC[C@]1(O)C3 [steviol]			11.94 ± 0.42 μm			statistically significant increase in the stomatal aperture	15.00 ± 0.32 μm		
C=C1C[C@@]23CC[C@H]4[C@@](C)(CCC[C@@]4(C)C(=O)O[C@@H]4O[C@H](CO)[C@@H](O)[C@H](O)[C@H]4O)[C@@H]2CC[C@]1(O[C@@H]1O[C@H](CO)[C@@H](O)[C@H](O)[C@H]1O[C@@H]1O[C@H](CO)[C@@H](O)[C@H](O)[C@H]1O)C3 [stevioside]		6.83 ± 0.23 μm	5.81 ± 0.20 μm				7.33 ± 0.31 μm	an increase in the stomatal aperture	statistically significant increase in the stomatal aperture
